Numbers after ± are expanded uncertainties.
Legend:
[1] = refractive index (Na D-line) (dimensionless); conditions: 298.15 K; 101.33 kPa; Liquid; Standard Abbe refractometry
[2] = 298.15 K; 101.33 kPa; Liquid; Vibrating tube method

| Structure (SMILES) | refractive index [1] | mass density [2] [kg/m3] |
| --- | --- | --- |
| CCC(=O)O [propanoic acid] | 1.3807 ± 0.0008 | 998.04 ± 10 |
| CCCC(=O)O [butanoic acid] | 1.3977 ± 0.0008 | 952.68 ± 10 |
| CCc1ccccc1 [ethylbenzene] | 1.493 ± 0.0008 | 862.51 ± 10 |
| CC(=O)O [acetic acid] | 1.3714 ± 0.0008 | 1044.12 ± 10 |
| O [water] | 1.3324 ± 0.0008 |  |
| O=CO [formic acid] | 1.371 ± 0.0008 | 1219.5 ± 10 |
